Reference: patent US9115101B2 (Genentech, Inc., priority 2012, dated 2015)

Molecular target: T1, RORc ligand binding domain (Homo sapiens, UniProt P51449)
T1 construct: host or cells: E. coli
T1 sequence (P51449 269-508 limits assumed): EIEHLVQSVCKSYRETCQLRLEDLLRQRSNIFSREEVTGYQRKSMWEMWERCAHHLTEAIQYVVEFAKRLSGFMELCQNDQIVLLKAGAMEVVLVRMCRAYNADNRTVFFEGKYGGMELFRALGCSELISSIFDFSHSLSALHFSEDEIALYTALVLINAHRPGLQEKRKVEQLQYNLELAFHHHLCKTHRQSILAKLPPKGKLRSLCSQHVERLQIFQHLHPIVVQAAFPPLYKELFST
Assay: In Vitro RORc Ligand Binding Assay (25-[3H]hydroxycholesterol radioligand filtration)
Conditions: In Vitro RORc Ligand Binding Assay; Table 4; read-out: RORc IC50

SMILES	IC50 [nM]
CC(=O)N1CCN(c2ccc(CN3CCOCC(c4ccccc4)S3(=O)=O)c(F)c2)CC1 (single isomer, unassigned) [Example 23, 1-{4-[4-(4,4-Dioxo-3-phenyl-[1,4,5]oxathiazepan-5-ylmethyl)-3-fluoro-phenyl]-piperazin-1-yl}-ethanone]	45
CC(=O)N1CCN(c2ccc(CN3C[C@H](C)OCC(c4ccccc4)S3(=O)=O)c(F)c2)CC1 (single isomer, unassigned) [Example 28]	104
CC(=O)N1CCN(c2ccc(CN3C[C@H](C)OCC(c4ccccc4)S3(=O)=O)c(F)c2)CC1 (single isomer, unassigned) [Example 29]	24
CC(=O)N1CCN(c2ccc(CN3C[C@@H](C)OCC(c4ccccc4)S3(=O)=O)c(F)c2)CC1 (single isomer, unassigned) [Example 30]	107
C[C@H]1CCC(c2ccccc2)S(=O)(=O)N1Cc1ccc(OC2CCN(S(C)(=O)=O)CC2)cc1F (single isomer, unassigned) [Example 32]	17
C[C@H]1CCC(c2ccccc2)S(=O)(=O)N1Cc1ccc(OC2CCN(S(C)(=O)=O)CC2)cc1F (single isomer, unassigned) [Example 33]	13
C[C@H]1CCC(c2ccccc2)S(=O)(=O)N1Cc1ccc(OC2CCN(S(C)(=O)=O)CC2)nc1 (single isomer, unassigned) [Example 34]	686
C[C@H]1CCC(c2ccccc2)S(=O)(=O)N1Cc1ccc(OC2CCN(S(C)(=O)=O)CC2)nc1 (single isomer, unassigned) [Example 35]	1100
C[C@H]1CCC(c2ccccc2)S(=O)(=O)N1Cc1ccc(OC2CN(S(C)(=O)=O)C2)cc1F (single isomer, unassigned) [Example 36]	71
C[C@H]1CCC(c2ccccc2)S(=O)(=O)N1Cc1ccc(OC2CN(S(C)(=O)=O)C2)cc1F (single isomer, unassigned) [Example 37]	194
C[C@H]1CCC(c2ccccc2)S(=O)(=O)N1Cc1ccc(OC2CCS(=O)(=O)CC2)cc1F (single isomer, unassigned) [Example 38]	135
C[C@H]1CCC(c2ccccc2)S(=O)(=O)N1Cc1ccc(OC2CCS(=O)(=O)CC2)cc1F (single isomer, unassigned) [Example 39]	119

The remaining lines, values ahead:

IC50 [nM]	SMILES
182	CC(=O)N1CCN(c2ccc(CN3[C@@H](C)COCC(c4ccccc4)S3(=O)=O)c(F)c2)CC1 (single isomer, unassigned) [Example 24]
32	CC(=O)N1CCN(c2ccc(CN3[C@@H](C)COCC(c4ccccc4)S3(=O)=O)c(F)c2)CC1 (single isomer, unassigned) [Example 25]
2000	CC(=O)N1CCN(c2ccc(CN3[C@H](C)COCC(c4ccccc4)S3(=O)=O)c(F)c2)CC1 (single isomer, unassigned) [Example 26]
188	CC(=O)N1CCN(c2ccc(CN3[C@H](C)COCC(c4ccccc4)S3(=O)=O)c(F)c2)CC1 (single isomer, unassigned) [Example 27]
717	CC(=O)N1CCN(c2ccc(CN3C[C@@H](C)OCC(c4ccccc4)S3(=O)=O)c(F)c2)CC1 (single isomer, unassigned) [Example 31]
81	CC(=O)N1CCN(c2ccc(CN3[C@@H](C)CCC(c4ccccc4)S3(=O)=O)cc2)CC1 (single isomer, unassigned) [Example 40]
126	CC(=O)N1CCN(c2ccc(CN3[C@@H](C)CCC(c4ccccc4)S3(=O)=O)cc2)CC1 (single isomer, unassigned) [Example 41]
837	CC(=O)N1CCN(c2ccc(CN3[C@@H](C)CCC(c4ccccc4)S3(=O)=O)cn2)CC1 (single isomer, unassigned) [Example 42]
1500	CC(=O)N1CCN(c2ccc(CN3[C@@H](C)CCC(c4ccccc4)S3(=O)=O)cn2)CC1 (single isomer, unassigned) [Example 43]
14	C[C@H]1CCC(c2ccccc2)S(=O)(=O)N1Cc1ccc(OC2CCN(S(C)(=O)=O)CC2)cc1 (single isomer, unassigned) [Example 44]
